We go through 17 molecules from patent US9381200B2, “Nitrogen containing compounds” (WOCKHARDT LIMITED, priority 2011, dated 2016).

In brackets after ≈: the same amount, converted by molar mass. Like-named read-outs stand apart in the source and are kept apart here.

Test in all cases: Antibacterial activity (MIC), agar dilution per CLSI
What all share (type): cell-based
A general note: In agar dilution, organisms are placed on agar that contains the substance at set levels.

Assay [1] relates to E. coli 7 MP. The note with it: Table 3, E. coli 7 MP expressing ESBL. The procedure: (§1) The biological activity of representative compounds according to the invention against various bacterial strains was investigated. In a typical study, overnight grown bacterial cultures were diluted appropriately and inoculated on the agar media containing doubling dilutions of the test compounds. Observation for growth or no growth was performed after 16-20 hours of incubation at 35±2° C. in ambient air. The overall procedure was performed as per Clinical and Laboratory Standards Institute (CLSI) recommendations (Clinical and Laboratory Standards Institute (CLSI), Performance Standards for Antimicrobial Susceptibility Testing, 20th Informational Supplement, M 100-S20, Volume 30, No. 1, 2010).
(§2) Table 3 details antibacterial activity of representative compounds according to the invention against various E. coli strains (NCTC 13351, M 50 and 7 MP) expressing ESBL (Extended Spectrum Beta Lactamases).

Assay [2] relates to E. coli NCTC 13351. The note with it: 16-20 hours, 35±2° C. The method, then: as §1, §2
For assay [3], the system named is E. coli M 50. The note with it: E. coli M 50 expressing ESBL, agar dilution. The procedure:
as §1
The activities are expressed as MICs (mcg/ml).

Setting [4] is: Escherichia coli, read-out: MIC.
Setting [5] is: Escherichia coli, NCTC13351, Table 3, E. coli NCTC 13351 expressing ESBL, read-out: MIC.
[6] abbreviates: Escherichia coli, M50, Table 3, read-out: MIC.
Setting [7] is: Table 3, E. coli NCTC 13351 expressing ESBL.

Broadly, the MIC is the least concentration at which growth counts as inhibited. `CO[C@H]1CN[C@H](C(=O)NNC(=O)[C@H]2CC[C@@H]3CN2C(=O)N3OS(=O)(=O)O)C1` (mixture of isomers) [Example 12, trans-sulfuric acid mono-[2-(N′-[(2S,4R)-4-methoxy-pyrrolidin-2-carbonyl]-hydrazinocarbonyl)-7-oxo-1,6-diaza-bicyclo[3.2.1]oct-6-yl]ester]: the MIC in assay [1] (setting [4]) came out at 32 µg/mL; in assay [2] (setting [5]), 1 µg/mL; in assay [3] (setting [6]), 8 µg/mL.

Consider `O=C(NNC(=O)[C@H]1CC[C@@H]2CN1C(=O)N2OS(=O)(=O)O)[C@H]1CCCNC1` (mixture of isomers) [Example 15, trans-sulfuric acid mono-[2-(N′—((S)-piperidin-3-carbonyl)-hydrazinocarbonyl)-7-oxo-1,6-diaza-bicyclo[3.2.1]oct-6-yl]ester], for which the minimal inhibitory concentration (MIC) in assay [1] (setting [4]) is 16 µg/mL; in assay [2] (setting [5]), 8 µg/mL; in assay [3] (setting [6]) it was 4 µg/mL.

Consider `O=C(NNC(=O)[C@H]1CCCCN1)[C@H]1CC[C@@H]2CN1C(=O)N2OS(=O)(=O)O` (mixture of isomers) [Example 18, trans-sulfuric acid mono-[2-(N′—((R)-piperidin-2-carbonyl)-hydrazinocarbonyl)-7-oxo-1,6-diaza-bicyclo[3.2.1]oct-6-yl]ester], for which the minimal inhibitory concentration (MIC) is 32 µg/mL in assay [1] (setting [4]), 8 µg/mL in assay [2] (setting [5]) and 4 µg/mL in assay [3] (setting [6]).

As for `NCCCC[C@H](N)C(=O)NNC(=O)[C@H]1CC[C@@H]2CN1C(=O)N2OS(=O)(=O)O` (mixture of isomers) [Example 26, trans-sulfuric acid mono-[2-(N′-((2S)-2,6-diamino-hexanoyl)-hydrazinocarbonyl)-7-oxo-1,6-diaza-bicyclo[3.2.1]oct-6-yl]ester], the minimal inhibitory concentration (MIC) in assay [1] (setting [4]) came out at 2 µg/mL; in assay [2] (setting [5]), 1 µg/mL; in assay [3] (setting [6]) it was 1 µg/mL.

For `O=C(NNC(=O)[C@H]1CC[C@@H]2CN1C(=O)N2OS(=O)(=O)O)[C@H]1CCNC1` (mixture of isomers) [Example 33, trans-sulfuric acid mono-[2-(N′—[(S)-pyrrolidin-3-carbonyl]-hydrazinocarbonyl)-7-oxo-1,6-diaza-bicyclo[3.2.1]oct-6-yl]ester], the values for the minimum inhibitory concentration (MIC) in assay [1] (setting [4]), in assay [2] (setting [5]) and in assay [3] (setting [6]) were 2 µg/mL, 1 µg/mL and 0.5 µg/mL, respectively.

Take `O=C(NNC(=O)[C@H]1CC[C@@H]2CN1C(=O)N2OS(=O)(=O)O)[C@@H]1C[C@@H](O)CN1` (mixture of isomers) [Example 34, trans-sulfuric acid mono-[2-(N′-[(2S,4R)-4-hydroxy-pyrrolidin-2-carbonyl]-hydrazinocarbonyl)-7-oxo-1,6-diaza-bicyclo[3.2.1]oct-6-yl]ester]: the MIC in assay [1] (setting [4]) was determined as 8 µg/mL; in assay [2] (setting [5]), 2 µg/mL; in assay [3] (setting [6]) it was 2 µg/mL.

`N=C(N)N[C@@H]1CN[C@H](C(=O)NNC(=O)[C@H]2CC[C@@H]3CN2C(=O)N3OS(=O)(=O)O)C1` (mixture of isomers) [Example 36, trans-sulfuric acid mono-[2-(N′-[(2S,4S)-4-guanidino-pyrrolidin-2-carbonyl]-hydrazinocarbonyl)-7-oxo-1,6-diaza-bicyclo[3.2.1]oct-6-yl]ester]: the results for the MIC in assay [1] (setting [4]), in assay [2] (setting [5]) and in assay [3] (setting [6]) were 2 µg/mL, 1 µg/mL and 1 µg/mL, respectively.

For `O=C(NNC(=O)[C@H]1CC[C@@H]2CN1C(=O)N2OS(=O)(=O)O)[C@@H]1COCCN1` (mixture of isomers) [Example 39, trans-sulfuric acid mono-[2-(N′—((S)-morpholin-3-carbonyl)-hydrazinocarbonyl)-7-oxo-1,6-diaza-bicyclo[3.2.1]oct-6-yl]ester], the results for the MIC in assay [1] (setting [4]), in assay [2] (setting [5]) and in assay [3] (setting [6]) were 8 µg/mL, 4 µg/mL and 2 µg/mL, respectively.

Turning to `O=C(NNC(=O)[C@H]1CC[C@@H]2CN1C(=O)N2OS(=O)(=O)O)C1CCCCN1` (mixture of isomers) [Example 16, trans-sulfuric acid mono-[2-(N′—((RS)-piperidin-2-carbonyl)-hydrazinocarbonyl)-7-oxo-1,6-diaza-bicyclo[3.2.1]oct-6-yl]ester], the MIC was found to be 2 µg/mL (≈ 5.11 µM) in assay [1] (setting [4]), 1 µg/mL (≈ 2.55 µM) in assay [2] (setting [5]) and 1 µg/mL (≈ 2.55 µM) in assay [3] (setting [6]).

Consider `NC(C(=O)NNC(=O)[C@H]1CC[C@@H]2CN1C(=O)N2OS(=O)(=O)O)c1ccccc1` (mixture of isomers) [Example 20, trans-sulfuric acid mono-[2-(N′—((RS)-1-amino-1-phenyl-acetyl)-hydrazinocarbonyl)-7-oxo-1,6-diaza-bicyclo[3.2.1]oct-6-yl]ester], for which the MIC in assay [1] came to 8 µg/mL (≈ 19.4 µM); in assay [2] (setting [7]), 2 µg/mL (≈ 4.84 µM); in assay [3] (Table 3) it was 2 µg/mL (≈ 4.84 µM).

For `CC(N)CC(=O)NNC(=O)[C@H]1CC[C@@H]2CN1C(=O)N2OS(=O)(=O)O` (mixture of isomers) [Example 21, trans-sulfuric acid mono-[2-(N′—((RS)-3-amino-butanoyl)-hydrazinocarbonyl)-7-oxo-1,6-diaza-bicyclo[3.2.1]oct-6-yl]ester], the figures for the minimal inhibitory concentration (MIC) in assay [1] (setting [4]), in assay [2] (setting [5]) and in assay [3] (setting [6]) were 4 µg/mL (≈ 10.9 µM), 1 µg/mL (≈ 2.74 µM) and 1 µg/mL (≈ 2.74 µM), respectively.

In the case of `O=C(NNC(=O)[C@H]1CC[C@@H]2CN1C(=O)N2OS(=O)(=O)O)C1CCNC1` (mixture of isomers) [Example 32, trans-sulfuric acid mono-[2-(N′—[(RS)-pyrrolidin-3-carbonyl]-hydrazinocarbonyl)-7-oxo-1,6-diaza-bicyclo[3.2.1]oct-6-yl]ester], the MIC was found to be 1 µg/mL (≈ 2.65 µM) in assay [1] (setting [4]), 0.5 µg/mL (≈ 1.32 µM) in assay [2] (setting [5]) and 0.5 µg/mL (≈ 1.32 µM) in assay [3] (setting [6]).

As to `O=C(CCC1CCCCN1)NNC(=O)[C@H]1CC[C@@H]2CN1C(=O)N2OS(=O)(=O)O` (mixture of isomers) [Example 37, trans-sulfuric acid mono-[2-(N′—[(RS)-3-piperidin-2-yl-propionyl]-hydrazinocarbonyl)-7-oxo-1,6-diaza-bicyclo[3.2.1]oct-6-yl]ester], the minimal inhibitory concentration (MIC) in assay [1] (setting [4]) was found to be 4 µg/mL (≈ 9.54 µM); in assay [2] (setting [5]) it was 2 µg/mL (≈ 4.77 µM); in assay [3] (setting [6]), 2 µg/mL (≈ 4.77 µM).

Consider `NC(C(=O)NNC(=O)[C@H]1CC[C@@H]2CN1C(=O)N2OS(=O)(=O)O)c1ccccn1` (mixture of isomers) [Example 41, trans-sulfuric acid mono-[2-(N′—((RS)-1-amino-1-pyridin-2-yl-acetyl)-hydrazinocarbonyl)-7-oxo-1,6-diaza-bicyclo[3.2.1]oct-6-yl]ester], for which the MIC in assay [1] worked out at 16 µg/mL (≈ 38.6 µM); in assay [2] (setting [7]), 4 µg/mL (≈ 9.65 µM); in assay [3] (Table 3), 4 µg/mL (≈ 9.65 µM).

With `NNC(=O)[C@H]1CC[C@@H]2CN1C(=O)N2OS(=O)(=O)O` (relative stereo) [Example 6, trans-sulfuric acid mono-[2-hydrazinocarbonyl-7-oxo-1,6-diaza-bicyclo[3.2.1]oct-6-yl]ester], the MIC in assay [1] (setting [4]) came out at 128 µg/mL (≈ 457 µM); in assay [2] (setting [5]), 32 µg/mL (≈ 114 µM); in assay [3] (setting [6]), 64 µg/mL (≈ 228 µM).

For `N[C@@H](CO)C(=O)NNC(=O)[C@H]1CC[C@@H]2CN1C(=O)N2OS(=O)(=O)O` (relative stereo) [Example 10], the minimum inhibitory concentration (MIC) worked out at 32 µg/mL (≈ 87.1 µM) in assay [1], 1 µg/mL (≈ 2.72 µM) in assay [2] (setting [7]) and 8 µg/mL (≈ 21.8 µM) in assay [3] (Table 3).

`CC(C)(CN)C(=O)NNC(=O)[C@H]1CC[C@@H]2CN1C(=O)N2OS(=O)(=O)O` (relative stereo) [Example 22, trans-sulfuric acid mono-[2-(N′-(3-amino-2,2-dimethyl-propioyl)-hydrazinocarbonyl)-7-oxo-1,6-diaza-bicyclo[3.2.1]oct-6-yl]ester]: the MIC turned out to be 8 µg/mL (≈ 21.1 µM) in assay [1] (setting [4]), 4 µg/mL (≈ 10.5 µM) in assay [2] (setting [5]) and 4 µg/mL (≈ 10.5 µM) in assay [3] (setting [6]).
